Data from article PMC11511111, “Scoliidines: Neuroprotective Peptides in Solitary Scoliid Wasp Venoms” (Toxins, 2024).
Where no end group is shown, it is not given here.

How the values were obtained:
PC12 cells = assay: PC12 cytotoxicity (crystal violet cell viability); format: cell-based; details: result in words
Experimental: Figure 2 Cytotoxic effects of γ-, δ- and ε-scoliidines on PC12 viability. The cells were exposed to peptides at different concentrations and times. The control and DMSO groups correspond to cells that have not been treated and cells that have been treated with a 5% concentration of DMSO, respectively. […] Statistical analysis was conducted using a one-way analysis of variance (ANOVA), followed by Dunnett’s post-test. The statistical difference when compared to the control group (p < 0.05) was indicated by asterisks.
(§1) All chemicals used here were analytical reagent grade (purity higher than 95%) purchased from different brands. The AChE enzyme was derived from Electrophorus electricus Type VI-S, and the ACE I enzyme was derived from rabbit lung and was acquired from Sigma-Aldrich Corporation (St. Louis, MO, USA). Neprilysin and the substrates [Abz-FRK (Dnp) P-OH and Abz-RGFK (Dnp)-OH] were supplied by Prof. Adriana Carmona from the Department of Biophysics at Federal University of São Paulo (SP, Brazil). PC12 cell (American Type Culture Collection ® CRL-1721™; Manassas, VA, USA) was used in the present study. Cells were routinely cultured in DMEM medium (Sigma-Aldrich Corporation; St. Louis, MO, USA), according to a previous study.
The cytotoxicity assay was performed using the staining of attached cells with crystal violet dye, according to the literature. Briefly, PC12 cells (5 × 10^3 cells per well; 96-well plates) were treated with different concentrations and times. Untreated cells or treated with DMSO (5%; v·v^−1) were included as controls. We measured the absorbance of dye solubilized in methanol at 570 nm using a microplate reader (BioTek Instruments, Inc., Winooski, VT, USA). We collected data from three distinct examinations, each performed three times, showing the percentage of cell viability relative to the control.
All results are shown as mean ± SD from three separate experiments (n = 3) in triplicate. One-way analysis of variance (ANOVA) was used for between-group comparisons, and Dunnett’s post-hoc test was used for multiple comparisons. Statistical significance was defined as p < 0.05. The analyses were done using GraphPad Prism 6.0 (GraphPad Software, Inc., La Jolla, CA, USA).

PC12 neuronal cells [1] = assay: PC12 mitochondrial metabolism (MTT reduction) / neuroprotection against H2O2-induced oxidative stress; format: cell-based; details: H2O2 0.5 mmol·L^−1, 20 h, percent compared to control group, oxidative stress model
Experimental: PC12 cells were pre-treated with γ-, δ- or ε-scoliidines for 4 h and then exposed to γ-, δ- or ε-scoliidines containing H2O2 for an additional 20 h, providing a protective model (Figure 3A). Cells subjected to a 20-h exposure to H2O2 represent an oxidative stress model.
Figure 3 Neuroprotective property of γ-, δ- and ε-scoliidines on mitochondrial metabolism of the PC12 cell line against H2O2-induced oxidative stress. (A) The experiment involved treating cells (5 × 10^3 cells per well in a 96-well plate) with γ, δ, and ε scoliidines (1 μmol·L^−1) for 4 h at 37 °C. After that, the medium was changed with a solution containing peptide (1 μmol·L^−1) and H2O2 (0.5 mmol·L^−1), and the cells were incubated for an additional 20 h. (B) Protective effects of peptides against neurotoxicity caused by oxidative stress. […]
PC12 cells (5 × 10^3 cells per well) seeded in a 96-well plate (Nest Biotechnology, Rahway, NJ, USA) were used to study the neuroprotective effects of peptides against H2O2-induced oxidative stress, according to a previous study. […] The mitochondrial metabolism was analyzed by 3-(4,5-dimethylthiazol-2-yl)-2,5-diphenyltetrazolium bromide (MTT; 0.5 mg·mL^−1 for 3 h of incubation at 37 °C) reduction assay. The absorbance of the MTT formazan dissolved in 100% DMSO was measured at a wavelength of 540 nm using a spectrophotometer (BioTek Instruments, Inc., Winooski, VT, USA). […]

[2] = tested on: acetylcholinesterase (AChE); assay: Acetylcholinesterase (AChE) activity, Ellman's method; format: biochemical, Electrophorus electricus; details: compared to control (100 ± 1.6%), mean ± SD
Description: Figure 4 Effects of γ-, δ- and ε-scoliidines on the function of acetylcholinesterase (AChE). The AChE activity was quantified as a percentage of hydrolyzed acetylthiocholine iodine substrate compared to the control (C; blank box). The data obtained from three separate experiments, each performed three times, is presented as mean ± SD.
as §1
The inhibition of AChE activity was determined spectrophotometrically based on Ellman’s method, as previously reported. We calculated AChE activity as the hydrolyzed acetylthiocholine iodide substrate concentration as a percentage of control.
All results are shown as mean ± SD from three separate experiments (n = 3) in triplicate. […]

PC12 neuronal cells [3] = details: result in words, ref [25]; cited from earlier work
Description: (§2) In recent years, our investigation has focused on scoliid wasp venoms. Scoliid wasps hunt and sting beetle larvae under the ground. Comprehensive LC-MS and MS/MS analysis of the venom extract from Scolia decorata ventralis identified two major peptide components named α- and β-scoliidine. […] This is the first case of solitary wasp venom peptides showing neuroprotective activity. Similarly, venom components of Campsomeriella annulata annulata were in ...

[4] = tested on: angiotensin-converting enzyme (ACE); assay: Peptide stability / cleavage by angiotensin-converting enzyme; format: in vitro ADME, rabbit; details: relative hydrolysis ratio; peptide 30 µmol·L^−1, ACE 7.5 ng, 37 °C, 4 h
Description: as §1
(§3) The stability tests of peptides (30 µmol·L^−^1) were tested after incubation separately with ACE and NEP (7.5 ng) at 37 °C for 4 h, according to previous reports.

human neprilysin (NEP) = assay: Peptide stability / cleavage by neprilysin; format: in vitro ADME; details: relative hydrolysis ratio; peptide 30 µmol·L^−1, NEP 7.5 ng, 37 °C, 4 h
Description: as §1, §3

neuronal PC12 cells = details: result in words, ref [26]; cited from earlier work
Description: as §2

[5] = tested on: acetylcholine (ACh) receptors of insect central nervous system; details: result in words; insects' central nervous system; ref [18],[19],[20]; cited from earlier work
Description: Scoliid wasp venoms were the first solitary wasp venoms to be studied between the years 1987 and 1990, and the presence of bradykinin-related peptides was reported. […] Since the f ...

[6] = all concentrations and times assessed, 570 nm

## C[S+](C)[O-] [DMSO, reference compound]
PC12 cells; DMSO 5% (v·v^−1)
  cell viability with DMSO: decrease in cell viability

## OO [H2O2]
PC12 neuronal cells [1]
  mitochondrial metabolism of PC12 cells treated only with H2O2: 75.8 ± 2.4%

## CCOP(=O)(OCC)OP(=O)(OCC)OCC [TEPP, tetraethyl pyrophosphate]
[2]
  AChE activity with positive control: 27.8 ± 6.5%

## DYVTVKGFSPLR [α-scoliidine]
PC12 neuronal cells [3]
  neuroprotective effect against oxidative stress-induced neurotoxicity: only β-scoliidine showed a neuroprotective effect

## DYVTVKGFSPLREP [ε-scoliidine]
PC12 cells; 0.01 μmoL·L^−1, up to 6 h of treatment, 570 nm, three experiments in triplicate
  cell viability: enhanced cell viability
PC12 cells; 10 μmoL·L^−1, 24 h, 570 nm, three experiments in triplicate
  cell viability: cell viability decreased
PC12 cells; 570 nm
  concentration dependence of decrease in cell viability: decrease in cell viability was dependent on the concentration
[4]
  Cleavage (%) ACE: <0.01%
Human neprilysin (NEP)
  Cleavage (%) NEP: <0.01%

## DYVTVKGFSPLRKA [β-scoliidine]
[4]
  Cleavage (%) ACE: <0.01%
Human neprilysin (NEP)
  Cleavage (%) NEP: <0.01%

## PRLRRLTGLSPLR [α-campsomerin]
Neuronal PC12 cells
  cell growth potentiating effect: showed a cell growth potentiating effect

## PRLRRLTGLSPLRAP [β-campsomerin]
Neuronal PC12 cells
  cell growth potentiating effect: had no effect

## RPPGFSPFR [bradykinin, reference compound]
[4]
  Cleavage (%) ACE: 100%
Human neprilysin (NEP)
  Cleavage (%) NEP: 100%

## RPPGFTPFR [Thr^6-bradykinin]
[5]
  blocking action on ACh receptors: showing a blocking action on ACh receptors

## RPPGFTPFRKA [Megascoliakinin]
[5]
  blocking action on ACh receptors: showing a blocking action on ACh receptors

## YVTVKGFSPLR [γ-scoliidine]
PC12 cells; [6]
  cell viability: cell viability remained unchanged
[4]
  Cleavage (%) ACE: <0.01%
Human neprilysin (NEP)
  Cleavage (%) NEP: <0.01%

## YVTVKGFSPLREP [δ-scoliidine]
PC12 cells; [6]
  cell viability: cell viability remained unchanged
[4]
  Cleavage (%) ACE: <0.01%
Human neprilysin (NEP)
  Cleavage (%) NEP: <0.01%
